{
  "source": "PubChem BioAssay AID1259411",
  "about": "(Chemical Carcinogenesis Research Information System (CCRIS), 2018)",
  "tested_on": "rodent carcinogenicity bioassays, tumor incidence",
  "experiment": "CCRIS carcinogenicity studies",
  "in_short": "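NCI-built, expert-reviewed records of carcinogenicity and related test outcomes (mutagenicity, tumor promotion/inhibition) compiled from published and report sources, historical span 1985-2011, not updated.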",
  "note": "Activity calls are given as the source filed them. The rule behind the calls is not given here.",
  "data": [
    {"smiles": "ClCCCl", "values": [
      {"measurement": "carcinogen call", "setting": "Species: MOUSE, Strain/Sex: B6C3F1/FEMALE, Route: GAVAGE, Dose: 0, 149, 299 MG/KG TWA,5 D/WK FOR 78 WK (STUDY DURATION: 91 WK), Dose: 0, 149, 299 MG/KG TWA,5 D/WK FOR 78 WK (STUDY DURATION: 91 WK), Tumor Site: Type of Lesion: LUNG: ALVEOLAR/BRONCHIOLAR ADENOMA, UTERUS (ENDOMETRIUM): STROMAL POLYP, STROMAL SARCOMA, MAMMARY GLAND: ADENOCARCINOMA, Tumor Site: Type of Lesion: LUNG: ALVEOLAR/BRONCHIOLAR ADENOMA, UTERUS (ENDOMETRIUM): STROMAL POLYP, STROMAL SARCOMA, MAMMARY GLAND: ADENOCARCINOMA", "value": "active; positive"},
      {"measurement": "carcinogen call", "setting": "Species: MOUSE, Strain/Sex: B6C3F1/MALE, Route: GAVAGE, Dose: 0, 97, 195 MG/KG TWA, 5 D/WK FOR 78 WK (STUDY DURATION: 90-91 WK), Dose: 0, 97, 195 MG/KG TWA, 5 D/WK FOR 78 WK (STUDY DURATION: 90-91 WK), Tumor Site: Type of Lesion: LUNG: ALVEOLAR/BRONCHIOLAR ADENOMA", "value": "active; positive"},
      {"measurement": "carcinogen call", "setting": "Species: MOUSE, Strain/Sex: EU-PIM-1/FEMALE, Route: GAVAGE, Dose: 0, 100, 300 MG/KG 1/D FOR 40 WK (STUDY DURATION: 40 WK), Dose: 0, 100, 300 MG/KG 1/D FOR 40 WK (STUDY DURATION: 40 WK), Tumor Site: Type of Lesion: LYMPHATIC SYSTEM: LYMPHOMA", "value": "active; positive"},
      {"measurement": "carcinogen call", "setting": "Species: MOUSE, Strain/Sex: EU-PIM-1/MALE, Route: GAVAGE, Dose: 0, 100, 300 MG/KG 1/D FOR 40 WK (STUDY DURATION: 40 WK), Dose: 0, 100, 300 MG/KG 1/D FOR 40 WK (STUDY DURATION: 40 WK)", "value": "inactive; negative"},
      {"measurement": "carcinogen call", "setting": "Species: MOUSE, Strain/Sex: ICR/FEMALE, Route: DERMAL, Dose: 42, 126 MG/APPL/MOUSE IN 0.2 ML ACETONE 3/WK, Tumor Site: Type of Lesion: LUNG: BENIGN PAPILLOMA", "value": "active; positive"},
      {"measurement": "carcinogen call", "setting": "Species: RAT, Strain/Sex: OSBORNE-MENDEL/FEMALE, Route: GAVAGE, Dose: 0, 47, 95 MG/KG TWA, 5 D/WK FOR 69 WK (STUDY DURATION: 93-110 WK), Dose: 0, 47, 95 MG/KG TWA, 5 D/WK FOR 69 WK (STUDY DURATION: 93-110 WK), Tumor Site: Type of Lesion: MAMMARY GLAND: ADENOCARCINOMA OR FIBROADENOMA", "value": "active; positive"},
      {"measurement": "carcinogen call", "setting": "Species: RAT, Strain/Sex: OSBORNE-MENDEL/MALE, Route: GAVAGE, Dose: 0, 47, 95 MG/KG TWA, 5 D/WK FOR 69 WK (STUDY DURATION: 101-110 WK), Dose: 0, 47, 95 MG/KG TWA, 5 D/WK FOR 69 WK (STUDY DURATION: 101-110 WK), Tumor Site: Type of Lesion: INTEGUMENTARY SYSTEM (SUBCUTANEOUS TISSUE): FIBROMA, FORESTOMACH: SQUAMOUS CELL CARCINOMA, BLOOD VESSELS: HEMANGIOSARCOM, Tumor Site: Type of Lesion: INTEGUMENTARY SYSTEM (SUBCUTANEOUS TISSUE): FIBROMA, FORESTOMACH: SQUAMOUS CELL CARCINOMA, BLOOD VESSELS: HEMANGIOSARCOM", "value": "active; positive"},
      {"measurement": "carcinogen call", "setting": "Species: RAT, Strain/Sex: SPRAGUE-DAWLEY/FEMALE, Route: INHALATION, Dose: 0, 5, 10, 50, 150, 250 PPM IN AIR 7 HR/D 5 D/WK FOR 78 WK (STUDY DURATION: LIFETIME), Dose: 0, 5, 10, 50, 150, 250 PPM IN AIR 7 HR/D 5 D/WK FOR 78 WK (STUDY DURATION: LIFETIME), Tumor Site: Type of Lesion: [BRAIN WAS ONLY SITE EVALUATED]", "value": "inactive; negative"},
      {"measurement": "carcinogen call", "setting": "Species: RAT, Strain/Sex: SPRAGUE-DAWLEY/FEMALE, Route: INHALATION, Dose: 0, 50 PPM 7 HR/D 5 D/WK FOR 2 YR (STUDY DURATION: 2 YR)", "value": "inactive; negative"},
      {"measurement": "carcinogen call", "setting": "Species: RAT, Strain/Sex: SPRAGUE-DAWLEY/MALE, Route: INHALATION, Dose: 0, 5, 10, 50, 150, 250 PPM IN AIR 7 HR/D 5 D/WK FOR 78 WK (STUDY DURATION: LIFETIME), Dose: 0, 5, 10, 50, 150, 250 PPM IN AIR 7 HR/D 5 D/WK FOR 78 WK (STUDY DURATION: LIFETIME), Tumor Site: Type of Lesion: [BRAIN WAS ONLY SITE EVALUATED]", "value": "inactive; negative"},
      {"measurement": "carcinogen call", "setting": "Species: RAT, Strain/Sex: SPRAGUE-DAWLEY/MALE, Route: INHALATION, Dose: 0, 50 PPM 7 HR/D 5 D/WK FOR 2 YR (STUDY DURATION: 2 YR)", "value": "inactive; negative"}
    ]},
    {"smiles": "CCCCCCN(C)N=O", "values": [
      {"measurement": "carcinogen call", "setting": "Species: HAMSTER, Strain/Sex: SYRIAN/FEMALE, Route: GAVAGE, Dose: 0, 6.2 MG/KG 1/WK FOR 50 WK (TOTAL DOSE: 0; 2.1 MMOL) (STUDY DURATION: LIFETIME), Dose: 0, 6.2 MG/KG 1/WK FOR 50 WK (TOTAL DOSE: 0; 2.1 MMOL) (STUDY DURATION: LIFETIME), Tumor Site: Type of Lesion: LIVER: CHOLANGIOMA, LUNG: ALVEOLAR/BRONCHIAL CARCINOMA, ALVEOLAR/BRONCHIAL ADENOMA, URINARY BLADDER: TRANSITIONAL CELL C, Tumor Site: Type of Lesion: LIVER: CHOLANGIOMA, LUNG: ALVEOLAR/BRONCHIAL CARCINOMA, ALVEOLAR/BRONCHIAL ADENOMA, URINARY BLADDER: TRANSITIONAL CELL C", "value": "active; positive"},
      {"measurement": "carcinogen call", "setting": "Species: HAMSTER, Strain/Sex: SYRIAN/MALE, Route: GAVAGE, Dose: 0, 6.2 MG/KG 1/WK FOR 50 WK (TOTAL DOSE: 0; 2.1 MMOL) (STUDY DURATION: LIFETIME), Dose: 0, 6.2 MG/KG 1/WK FOR 50 WK (TOTAL DOSE: 0; 2.1 MMOL) (STUDY DURATION: LIFETIME), Tumor Site: Type of Lesion: LIVER: HEPATOCELLULAR ADENOMA, CHOLANGIOMA, HEMANGIOSARCOMA, LUNG: ALVEOLAR/ BRONCHIAL ADENOMA, NASAL MUCOSA: CARCINOMA,, Tumor Site: Type of Lesion: LIVER: HEPATOCELLULAR ADENOMA, CHOLANGIOMA, HEMANGIOSARCOMA, LUNG: ALVEOLAR/ BRONCHIAL ADENOMA, NASAL MUCOSA: CARCINOMA", "value": "active; positive"},
      {"measurement": "carcinogen call", "setting": "Species: RAT, Strain/Sex: F344/FEMALE, Route: INTRAVESICULAR, Dose: 0, 3.75 MG IN 0.4 ML ETHANOL: DEIONIZED WATER (1:3) 2/WK FOR 30 WK (TOTAL DOSE 1.6 MMOL) (STUDY DURATION: LIFESPAN), Tumor Site: Type of Lesion: BLADDER: TUMOR, LUNG: SQUAMOUS CELL CARCINOMA, UTERUS: TUMOR, Tumor Site: Type of Lesion: BLADDER: TUMOR, LUNG: SQUAMOUS CELL CARCINOMA, UTERUS: TUMOR", "value": "active; positive"}
    ]},
    {"smiles": "Clc1ccc(C(c2ccc(Cl)cc2)C(Cl)Cl)cc1", "values": [
      {"measurement": "carcinogen call", "setting": "Species: MOUSE, Strain/Sex: B6C3F1/FEMALE, Route: ORAL, Dose: 0, 411, 822 PPM IN DIET FOR 78 WK (STUDY DURATION: 93 WK), Dose: 0, 411, 822 PPM IN DIET FOR 78 WK (STUDY DURATION: 93 WK)", "value": "inactive; negative"},
      {"measurement": "carcinogen call", "setting": "Species: MOUSE, Strain/Sex: B6C3F1/MALE, Route: ORAL, Dose: 0, 411, 822 PPM IN DIET FOR 78 WK (STUDY DURATION: 93 WK), Dose: 0, 411, 822 PPM IN DIET FOR 78 WK (STUDY DURATION: 93 WK)", "value": "inactive; negative"},
      {"measurement": "carcinogen call", "setting": "Species: MOUSE, Strain/Sex: CF-1/MALE,FEMALE, Route: ORAL, Dose: 250 PPM IN DIET, Tumor Site: Type of Lesion: LUNG", "value": "active; positive"},
      {"measurement": "carcinogen call", "setting": "Species: RAT, Strain/Sex: OSBORNE-MENDEL/FEMALE, Route: ORAL, Dose: 0, 850, 1700 PPM IN DIET FOR 78 WK (STUDY DURATION: 113 WK), Dose: 0, 850, 1700 PPM IN DIET FOR 78 WK (STUDY DURATION: 113 WK)", "value": "inactive; negative"},
      {"measurement": "carcinogen call", "setting": "Species: RAT, Strain/Sex: OSBORNE-MENDEL/MALE, Route: ORAL, Dose: 0, 1647, 3294 PPM IN DIET FOR 78 WK (STUDY DURATION: 113 WK), Dose: 0, 1647, 3294 PPM IN DIET FOR 78 WK (STUDY DURATION: 113 WK), Tumor Site: Type of Lesion: THYROID GLAND: FOLLICULAR CELL CARCINOMA OR ADENOMA", "value": "equivocal"}
    ]},
    {"smiles": "CC1=CC(=C(c2ccc(N)cc2)c2ccc(N)cc2)C=CC1=N", "values": [
      {"measurement": "carcinogen call", "setting": "Species: HUMAN, Route: ORAL, INHALATION, DERMAL, Tumor Site: Type of Lesion: URINARY BLADDER", "value": "active; positive"},
      {"measurement": "carcinogen call", "setting": "Species: RAT, Strain/Sex: SPRAGUE-DAWLEY/FEMALE, Route: GAVAGE, Dose: 0, 200 MG/KG BW 2/WK FOR 8 WK WITH A 1 WK REST AFTER 2 WK THEN STARTING AT 9 WK 100 MG/KG BW 2/WK FOR DURATION OF STUDY", "value": "inactive; negative"},
      {"measurement": "carcinogen call", "setting": "Species: RAT, Strain/Sex: SPRAGUE-DAWLEY/MALE, Route: GAVAGE, Dose: 0, 200 MG/KG BW 2/WK FOR 8 WK WITH A 1 WK REST AFTER 2 WK THEN STARTING AT 9 WK 100 MG/KG BW 2/WK FOR DURATION OF STUDY", "value": "inactive; negative"}
    ]}
  ]
}
